The source of these data is paper PMC10884005, “Euglena’s atypical respiratory chain adapts to the discoidal cristae and flexible metabolism” (Nature Communications, 2024).

Each structure is given as a SMILES string.

Assay [1] concerns the target T1, Eg-CI (ubiquinone / rotenone site).
T1 construct: gene ND1; native mitochondrial complex I, LMNG-solubilised, 59 subunits (16 core), ion exchange and SEC; cells catalogue GY-D32; with NADH dehydrogenase [ubiquinone] flavoprotein 1, mitochondrial; NADH-ubiquinone oxidoreductase 75 kDa subunit, N-terminal part; NADH-ubiquinone oxidoreductase 75 kDa subunit, C-terminal part
In words: NADH-DQ oxidoreductase, NADH oxidation at […] nm. Particulars: 10 nM Eg-CI, 200 μM decylubiquinone, 250 μM NADH, pH 7.4, 0.1% digitonin, room temperature. The class given is biochemical, Euglena gracilis.

The next assay addresses T2, S. scrofa CI (Sus scrofa, UniProt A0A4X1SZP7).
T2 construct: gene NDUFV1; native purified mitochondrial complex I; with NADH dehydrogenase [ubiquinone] flavoprotein 2, mitochondrial; NADH-ubiquinone oxidoreductase 75 kDa subunit, mitochondrial
In words: NADH oxidation at […] nm. The class given is biochemical. The settings on record: 200 μM DQ, 300 μM NADH, pH 7.4; thermal deactivation assay.

T2 sequence (A0A4X1SZP7 21-464): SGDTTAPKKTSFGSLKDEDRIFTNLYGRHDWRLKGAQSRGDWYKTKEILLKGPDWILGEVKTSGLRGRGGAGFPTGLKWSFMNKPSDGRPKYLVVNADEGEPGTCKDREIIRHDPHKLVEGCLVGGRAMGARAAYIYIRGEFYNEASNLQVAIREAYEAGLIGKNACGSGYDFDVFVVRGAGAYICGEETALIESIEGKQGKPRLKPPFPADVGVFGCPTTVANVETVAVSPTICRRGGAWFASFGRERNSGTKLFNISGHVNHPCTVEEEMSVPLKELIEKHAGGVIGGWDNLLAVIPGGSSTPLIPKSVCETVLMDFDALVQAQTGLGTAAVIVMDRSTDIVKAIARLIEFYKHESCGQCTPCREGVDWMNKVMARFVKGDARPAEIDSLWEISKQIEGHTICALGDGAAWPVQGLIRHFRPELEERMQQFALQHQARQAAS

With `C=C(C)[C@H]1Cc2c(ccc3c2O[C@@H]2COc4cc(OC)c(OC)cc4[C@@H]2C3=O)O1` [rotenone], the concentration for half-maximal inhibition (IC50) in assay [1] is approximately 11 µM. For `NC(=O)C1=CN([C@@H]2O[C@H](COP(=O)(O)OP(=O)(O)OC[C@H]3O[C@@H](n4cnc5c(N)ncnc54)[C@H](O)[C@@H]3O)[C@@H](O)[C@H]2O)C=CC1` [NADH], the “NADH oxidation at 340 nm” value at S. scrofa CI is given as “Thermal deactivation assays of S. scrofa CI (a)”.

By IC50 is commonly meant the point on the concentration scale where inhibition reaches its midpoint.
